Measured values reported in patent publication US20220195027A1, “ANTI-ANGIOGENESIS THERAPY FOR THE TREATMENT OF PREVIOUSLY TREATED BREAST CANCER” (Genentech, Inc., priority 2009, published 2022).
Read-outs that look alike come from different tables or passages of the source.

Legend:
metastatic breast cancer [1] = conditions: MBC patients with prior anthracycline therapy; cited from earlier work
metastatic breast cancer [2] = conditions: patients who previously received or were not candidates for anthracyclines; cited from earlier work
[3] = system: previously treated metastatic HER2-negative breast cancer; test: RIBBON 2 Phase III study, efficacy (PFS, OS) of bevacizumab or placebo plus chemotherapy; assay type: in vivo, human; conditions: for Progression free survival, result in words: in combination with chemotherapy, compared to chemotherapy alone
Experimental: The doctors treating the women in the study chose the type of chemotherapy used in combination with Avastin and the chemotherapies were assessed together in the primary endpoint analysis. […] Ribbon 2 was an international, multicenter, randomized, double-blind, placebo-controlled clinical study that enrolled 684 patients with metastatic HER2-negative breast cancer who had previously received chemotherapy for their metastatic disease. See Study Conduct in Table 1 and Patient Characteristics in Table 2. The trial evaluated the addition of either Avastin® (bevacizumab) or placebo to an investigator's choice of chemotherapy. The following chemotherapy regimens were used in the study: taxanes: paclitaxel, protein-bound paclitaxel or docetaxel; gemcitabine; capecitabine; or vinorelbine. Bevacizumab (5 mg/kg Weekly Equivalent) 15 mg/kg IV q 3 weeks; or […] Plus Chemotherapy Taxane • Paclitaxel (e.g., Taxol®): 90 mg/m^2 IV every week for 3 weeks followed by 1 week of rest; or • Paclitaxel (e.g., Taxol®): 175 mg/m^2 IV every 3 weeks; or • Paclitaxel protein-bound particles (Abraxane®): 260 mg/m^2 IV every 3 weeks; or • Docetaxel (Taxotere®): 75-100 mg/m^2 IV every 3 weeks; or Gemcitabine (Gemzar®): 1250 mg/m^2 IV on Days 1 and 8 of each 3-week cycle; or Vinorelbine (Navelbine®): 30 mg/m^2 IV every week; or […] In the study, PFS was defined as the time from randomization to disease progression or death as assessed by the treating physicians in the study (investigator-assessed). Secondary endpoints included objective response rate, duration of response, one-year survival rate, overall survival, PFS assessment by chemotherapy type and safety. […] See Table 3 Primary Efficacy Analysis of PFS and FIG. 2 (Primary Endpoint of PFS) and FIG. 3 (Cohort-Specific Analyses of PFS). PFS results were generally consistent across chemotherapy cohorts with the exception of the small vinorelbine sub-group. Other sub-groups (age, triple negative, etc.) were generally consistent with the primary PFS results. The observed improvement in overall PFS was supported by the secondary efficacy endpoint of ORR. See Table 4 for Interim Efficacy Analysis of OS. […] See, e.g., Table 5, Safety Summary, Safety Population, Table 6 Selected AEs, Safety Population and Table 7 Safety Summary by Chemotherapy Cohort, Safety Population. Bevacizumab was beneficial to patients as a second-line treatment.

[4] = RIBBON 2 Phase III study, safety (adverse events), safety population; assay type: in vivo; conditions: in combination with chemotherapy
Excerpt: Ribbon 2 was an international, multicenter, randomized, double-blind, placebo-controlled clinical study that enrolled 684 patients with metastatic HER2-negative breast cancer who had previously received chemotherapy for their metastatic disease. […] The trial evaluated the addition of either Avastin® (bevacizumab) or placebo to an investigator's choice of chemotherapy. The following chemotherapy regimens were used in the study: taxanes: paclitaxel, protein-bound paclitaxel or docetaxel; gemcitabine; capecitabine; or vinorelbine.

Row | Compound | survival (metastatic breast cancer [1]) | time to disease progression (metastatic breast cancer [1]) | survival (metastatic breast cancer [2]) | time to progression (metastatic breast cancer [2]) | PFS stratified analysis HR (95% CI) ([3]; Chemo/BV vs Chemo/PL, ITT population) | PFS median ([3]; ITT population, investigator-assessed) | Progression free survival, result in words [3] | Progression free survival, result in words ([3]; listed as Avastin) | Safety signals, result in words [4] | Safety signals, result in words ([4]; listed as Avastin)
1 | CC(=O)O[C@@]12CO[C@@H]1C[C@H](O)[C@@]1(C)C(=O)[C@H](O)C3=C(C)[C@@H](OC(=O)[C@H](O)[C@@H](NC(=O)OC(C)(C)C)c4ccccc4)C[C@@](O)([C@@H](OC(=O)c4ccccc4)[C@H]21)C3(C)C [docetaxel] | 11.4 months | 4.4 months | 11.5 months | 4.2 months |  |  |  |  |  | 
2 | bevacizumab: recombinant humanized anti-VEGF monoclonal antibody with human IgG1 framework and CDRs from murine antibody A.4.6.1 |  |  |  |  | 0.775 | 7.2 months | increase in progression free survival | increased the time | No new bevacizumab safety signals were observed | no new Avastin safety signals were observed
